Source: patent US11413278B2, “Compounds and methods for promoting stress resistance” (priority 2015, dated 2022)
“Also recorded” adds a separate entry of the source. Where two headings read alike, the source gives them in different places.

Legend:
WI-38 cells [1] = test: Propidium iodide (PI) cell-death imaging upon H2O2 stress; format: cell-based, human; conditions: for Assay 7: H2O2-resistant, at 10 uM, validated by propidium iodide (PI) cell-death imaging: w/H2O2, 3 hrs/4 hrs/5 hrs, YES/NO; for cytotoxicity at 10 µM: Homo sapiens, WI-38
human PARP1 = target: T1, human PARP1 (Homo sapiens, UniProt P09874); test: PARP inhibitor assay (HT Fluorescent Homogeneous PARP Inhibition Assay Kit); format: biochemical; conditions: for L = PARP inhibition: score
T1 construct: purchased Trevigen
T1 sequence (P09874 whole entry): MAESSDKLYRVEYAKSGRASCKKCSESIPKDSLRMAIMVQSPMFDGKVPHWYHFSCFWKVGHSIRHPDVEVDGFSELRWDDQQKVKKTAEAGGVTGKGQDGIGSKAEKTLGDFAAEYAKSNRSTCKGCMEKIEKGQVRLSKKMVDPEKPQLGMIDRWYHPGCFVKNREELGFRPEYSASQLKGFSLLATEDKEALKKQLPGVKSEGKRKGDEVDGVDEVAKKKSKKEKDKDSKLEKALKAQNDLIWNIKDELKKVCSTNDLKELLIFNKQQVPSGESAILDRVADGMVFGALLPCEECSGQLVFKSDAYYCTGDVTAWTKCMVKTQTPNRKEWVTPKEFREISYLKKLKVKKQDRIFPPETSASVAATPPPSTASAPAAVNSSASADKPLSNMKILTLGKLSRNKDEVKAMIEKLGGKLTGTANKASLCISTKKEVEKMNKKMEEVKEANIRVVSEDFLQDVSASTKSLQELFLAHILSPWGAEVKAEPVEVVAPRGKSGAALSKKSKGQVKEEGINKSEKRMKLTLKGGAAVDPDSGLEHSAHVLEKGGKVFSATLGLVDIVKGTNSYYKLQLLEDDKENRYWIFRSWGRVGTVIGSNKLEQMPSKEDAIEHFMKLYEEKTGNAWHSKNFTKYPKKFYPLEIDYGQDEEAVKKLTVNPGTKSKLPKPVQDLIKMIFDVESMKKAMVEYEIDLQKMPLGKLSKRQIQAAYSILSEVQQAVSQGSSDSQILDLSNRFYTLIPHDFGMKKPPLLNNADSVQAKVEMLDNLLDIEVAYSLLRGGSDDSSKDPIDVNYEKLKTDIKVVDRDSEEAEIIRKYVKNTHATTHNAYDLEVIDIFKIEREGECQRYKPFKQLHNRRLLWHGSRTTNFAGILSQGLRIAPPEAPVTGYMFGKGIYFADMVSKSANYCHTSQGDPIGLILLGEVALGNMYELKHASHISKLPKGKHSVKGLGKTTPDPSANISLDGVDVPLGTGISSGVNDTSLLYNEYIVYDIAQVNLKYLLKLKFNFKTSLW
Procedure, shortened: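 Compounds (10 μM final) incubated 30 min, room temperature, dark, with human PARP1, nicotinamide adenine dinucleotide and activated DNA. Fluorescent signal generated by 1 hr cycling with diaphorase and resazurin, then reaction stopped.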

NRF2 = test: in vitro; format: cell-based, human; conditions: for NRF2-dependency for H2O2-resistance, at 10 uM - with H2O2, 1st experiment: experiment 1 (1st); for NRF2-dependency for H2O2-resistance, at 10 uM - with H2O2, 2nd experiment: experiment 2 (2nd); for NRF2-dependency for H2O2-resistance, at 10 uM - with H2O2, 1st experiment / NRF2-dependency for H2O2-resistance, at 10 uM - with H2O2, 2nd experiment / NRF2-dependency for H2O2-resistance, at 10 uM (experiment 3) - with & without H2O2 / NRF2-dependency for H2O2-resistance (experiment 3) / NRF2-dependency for H2O2-resistance, 1st experiment / NRF2-dependency for H2O2-resistance, 2nd experiment / Assay 17: NRF2-dependency for H2O2-resistance: 10 uM; for NRF2-dependency for H2O2-resistance (experiment 3): with & without H2O2, NRF2 knockdown in WI-38 cells; for NRF2-dependency for H2O2-resistance (experiment 3) / NRF2-dependency for H2O2-resistance, 1st experiment / NRF2-dependency for H2O2-resistance, 2nd experiment: YES = resistance reduced by at least 50%, partial = 25% to 50%; for NRF2-dependency for H2O2-resistance, 1st experiment / NRF2-dependency for H2O2-resistance, 2nd experiment: with H2O2, NRF2 knockdown in WI-38 cells; for Assay 17: NRF2-dependency for H2O2-resistance: YES/NO; for Reduction of H2O2-resistance capacity upon NRF2 knockdown, on average: 3 of 3 experiments; for NRF2-dependency of H2O2-resistance (NRF2 siRNA knockdown): at least 2 of 3 independent experiments
LC3A/B puncta = test: Autophagy induction analysis (LC3A/B puncta immuno-staining); format: cell-based, human
Procedure, shortened: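 Read-out is LC3A/B puncta intensity per DAPI-positive nucleus, either total puncta (Exp. 1) or puncta colocalizing with LAMP2 lysosomes (Exp. 2). Cells were WI-38, exposed to compounds for 24 hrs before antibody staining overnight at 4° C and automated imaging.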

[2] = Summary score for characterization of 38 core set hits; conditions: for D = Triple resistant: 2-point score, multiplex resistance (cadmium, MMS, H2O2); for S = Sum of Negative scores: human; for C = H2O2- & Cd-resistant: score, resistance to both H2O2 and cadmium
Procedure, shortened: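 Hits from a small-molecule screen for H2O2 resistance were scored across characterization assays. Multiplex resistance, FOXO3 and/or NRF2 activation and mTOR down-regulation each earned 2 points. C. elegans lifespan, tested in 4 to 6 independent trials, scored 0–2, and DNA-damaging or cytotoxic effects in cultured human cells cost one point.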

WI-38 cells [3] = conditions: for No H2O2 stress treatment, at 10 uM (fold change): normalized ATP measurement; for Assay 1: H2O2-resistant: YES/NO, if NO, possibly due to repeated freezing/thawing of stocks
[4] = H2O2 3 hrs, 10 uM, n = 6, negative control 5.44% ± 0.79%, read-out: Percentage of propidium iodide-positive dead cells (under H2O2 stress treatment), 3 hrs
[5] = H2O2 4 hrs, 10 uM, n = 6, negative control 16.81% ± 1.42%, read-out: Percentage of propidium iodide-positive dead cells (under H2O2 stress treatment), 4 hrs
[6] = H2O2 5 hrs, 10 uM, n = 6, negative control 22.50% ± 1.53%, read-out: Percentage of propidium iodide-positive dead cells (under H2O2 stress treatment), 5 hrs
[7] = pre-treatment at 10 uM, 3.5 hours of H2O2, DMSO control 27.4% ± 6.5%, */**/*** = reduced by one/two/three standard deviations, read-out: Percentage of propidium iodide-positive dead cells (under H2O2 stress treatment), at 10 uM
[8] = WI-38 cells, 10 μM, (*) = compromised ability to protect cells from H2O2, could be due to stability issue
[9] = asterisks indicate the loss of the ability to protect cells from H2O2 over time
[10] = derived from dose response curves, 0.6-20 uM, H2O2-resistance of WI-38 cells
[11] = read-out: Est. ED50, dose response 0.6-20 μM, H2O2-resistance

SMILES	Assay 7: H2O2-resistant, at 10 uM, validated by propidium iodide (PI) cell-death imaging (WI-38 cells [1]; 10 uM)	cytotoxicity at 10 µM (WI-38 cells [1]; [4]) [%]	cytotoxicity at 10 µM (WI-38 cells [1]; [5]) [%]	cytotoxicity at 10 µM (WI-38 cells [1]; [6]) [%]	cytotoxicity at 10 µM (WI-38 cells [1]; [7]) [%]	L = PARP inhibition (human PARP1)	J = NRF2-dependency for H2O2-resistance (NRF2; score)	J = NRF2-dependency for H2O2-resistance (NRF2; summary score)	H = Potential Autophagy Induction (LC3A/B puncta; score)	H = Potential Autophagy Induction (LC3A/B puncta; summary score)	D = Triple resistant [2]	S = Sum of Negative scores [2]	C = H2O2- & Cd-resistant [2]	H2O2-resistant (WI-38 cells [3]; [8])	No H2O2 stress treatment, at 10 uM (fold change) (WI-38 cells [3]; WI-38 cells)	Assay 1: H2O2-resistant (WI-38 cells [3])	H2O2-resistant (WI-38 cells [3]; [9])	EC50 (WI-38 cells [3]; [10]) [µM]	EC50 (WI-38 cells [3]; [11]) [µM]	NRF2-dependency for H2O2-resistance, at 10 uM - with H2O2, 2nd experiment (NRF2)	further results
O=C(c1ccc([N+](=O)[O-])o1)N1CCc2ccccc21 [O13]	YES	1.13	2.56	7.03	4.8	0	0	0	0	0	0	0	0	YES	1.09	YES	YES	10.1	10.1	–	–
Oc1ncnc2sc3c(c12)CCC3 [O14]	YES	3.8	–	–	12.7	1	0	0	0	0	0	0	1	YES	1.11	YES	YES	12.5	12.5	–	Inhibition of PARP1 (human PARP1; 10 μM, in vitro): inhibitors of PARP1; also recorded: identified PARP inhibitor
CCCN1C/C(=C\c2ccc(F)cc2)C(=O)/C(=C/c2ccc(F)cc2)C1 [O15]	YES	4.04	4.4	6.06	6.8	0	1	1	0	0	0	0	0	YES (*)	0.98	YES	YES (*)	–	20	2nd, YES.	NRF2-dependency for H2O2-resistance, at 10 uM - with H2O2, 1st experiment (NRF2): 1st, YES;; NRF2-dependency for H2O2-resistance, at 10 uM (experiment 3) - with & without H2O2 (NRF2): YES; NRF2-dependency for H2O2-resistance (experiment 3) (NRF2): YES; NRF2-dependency for H2O2-resistance, 1st experiment (NRF2): YES;; NRF2-dependency for H2O2-resistance, 2nd experiment (NRF2): YES.; Assay 17: NRF2-dependency for H2O2-resistance (NRF2): YES; Reduction of H2O2-resistance capacity upon NRF2 knockdown, on average (NRF2): ~90%; NRF2-dependency of H2O2-resistance (NRF2 siRNA knockdown) (NRF2): significantly attenuate
[O-][n+]1onc2c3nsnc3c(Br)cc21 [O17]	YES	0.8	2.83	–	6.6	0	0	0	0	0	0	0	0	YES	1.06	–	YES	8.5	8.5	–	–
Cc1cc(C)c(C(=O)/C=C/c2ccccc2F)c(O)n1 [O18]	YES	3.66	3.06	4.16	4.5	0	1	1	0	0	0	0	0	YES	0.99	YES	YES	9.8	9.8	2nd, partial.	NRF2-dependency for H2O2-resistance, at 10 uM (experiment 3) - with & without H2O2 (NRF2): YES; NRF2-dependency for H2O2-resistance (experiment 3) (NRF2): YES; NRF2-dependency for H2O2-resistance, 2nd experiment (NRF2): partial.; Assay 17: NRF2-dependency for H2O2-resistance (NRF2): YES; NRF2-dependency of H2O2-resistance (NRF2 siRNA knockdown) (NRF2): significantly attenuate
COC(=O)CCc1sc2c(c1[N+](=O)[O-])NC(=O)CCC2 [O20]	YES	3.28	–	–	9.4	0	1	1	0	0	0	0	1	YES	1.12	YES	YES	12.9	12.9	2nd, YES.	NRF2-dependency for H2O2-resistance, at 10 uM - with H2O2, 1st experiment (NRF2): 1st, YES;; NRF2-dependency for H2O2-resistance, at 10 uM (experiment 3) - with & without H2O2 (NRF2): YES; NRF2-dependency for H2O2-resistance (experiment 3) (NRF2): YES; NRF2-dependency for H2O2-resistance, 1st experiment (NRF2): YES;; NRF2-dependency for H2O2-resistance, 2nd experiment (NRF2): YES.; Assay 17: NRF2-dependency for H2O2-resistance (NRF2): YES; Reduction of H2O2-resistance capacity upon NRF2 knockdown, on average (NRF2): ~90%; NRF2-dependency of H2O2-resistance (NRF2 siRNA knockdown) (NRF2): significantly attenuate
